Laboratory results published in US20060153888A1, “Methods for scavenging oxidizing nitrogen and oxygen species with fragrances having antioxidative properties” (Access Business Group International LLC, priority 2004, published 2006).

Experiments:
[1] = DPPH Spectrophotometer Assay (free radical scavenging); format: biochemical; conditions: for DPPH EC50: Table 5; for antioxidant properties in words: comment on DPPH and NORA results of Table 5; for antioxidant capacity in words: in both DPPH and nitric oxide free radical systems, Table 3
From the text: The free radical 2,2-Diphenyl-1-picrylhydrazyl (DPPH) may be used to determine free radical scavenging ability of test materials such as a scavenging agent of the present invention. […] Measurements are taken after the reaction between the test scavenging agent and DPPH reaches steady state. DPPH is a free radical that changes color when it reacts with an antioxidant. The color change in DPPH is an indication of antioxidant power. […] Thus, DPPH serves as a model for free radical oxidation. Provided below are details for conducting a DPPH Spectrophotometer Assay:
Weigh 100 mg sample into 15 ml conical centrifuge tube.
Add 1 ml DMSO. Vortex to mix.
Dilute samples in MeOH according to Table 2.
Dilute 1 mM DPPH (prepared in 80% MeOH) to 100 uM in 80% MeOH.
In 3 ml cuvette, add 200 uL sample dilution. Add 1.8 ml of 100 uM DPPH.
Mix well. Incubate 15 min at Room Temp. Read at […].
If cuvette appears cloudy due to precipitation of sample, prepare sample dilutions (Table 2) in DMF (or suitable solvent) instead of DMSO. Also prepare DPPH working solution (100 uM) in DMF (or suitable solvent) instead of MeOH.

[2] = Nitric Oxide Radical Absorbance (NORA) assay; format: biochemical; conditions: for inhibitory response for nitric oxide in words: comment on Table 3
Method: The NORA assay determines the ability of a compound to quench nitric oxide free radicals (NO*) produced by a NO* generator. In the assay, a target compound is oxidized using the nitric oxide generator NOR-3, resulting in increased fluorescence. […] Provided below are details for conducting a Nitric Oxide Radical Absorbance (NORA) Assay:
DHR123: 1.0 mg/3 ml MeOH=1 mM stock (Freeze and protect from light) 7.5 uL stock/10 ml Buffer=0.75 uM working solution.
NOR-3: 1.0 mg NOR-3/100 uL DMSO.
Oil: Weigh 100 mg into 15 ml polypropylene centrifuge tube. Add 5 ml
Prepare sample dilution in a 96-well polypropylene storage plate (2 mL/well), the dilution plate: • A. 60 uL Stock+1.94 ml DMF=200 ug/ml • B. 500 uL 200 ug/ml+500 ul DMF=100 ug/ml • C.
Positive Control: (1 uM Uric Acid)
Add 100 uL of each sample/PC/Blank in duplicate. Row H will contain PC only.
Add 70 uL Phosphate Buffer to all wells.
Add 30 uL NOR-3 to all wells.
Incubate plate 15 min at room temperature.

[3] = amount of test material required to inhibit nitric oxide oxidation by 50%, Table 3
[4] = Antioxidant Power equals 1/EC50, fragrant oils, Table 1

Structure (SMILES) | DPPH EC50 [1] [g/g DPPH] | NORA EC50 ([2]; Table 5) [µg/mL] | NORA EC50 [2, 3] [µg/mL] | further results
OCCOc1ccccc1 [2-Phenoxyethanol] | >2.82 | >10.0 | – | –
OCCCc1ccccc1 [3-Phenyl-1-propanol] | >2.82 | >10.0 | – | –
CC12CCC(CC1=O)C2(C)C (stereo not drawn) [Camphor] | >2.82 | >10.0 | – | –
CCCCCCCCC(=O)OCC [Ethyl monanoate] | >2.82 | >10.0 | – | –
C=CCc1ccc(O)c(OC)c1 [Eugenol] | 0.12 | 0.8 | – | antioxidant properties in words [1]: excellent antioxidant properties
CC(C)CC1CC(C)(O)CCO1 (stereo not drawn) [Florosa (Q), Florosa] | – | – | 150.33 | –
CCCCCC1COCCC1OC(C)=O (stereo not drawn) [Jasmopyrane (Q), Jasmopyrane] | – | – | 150.44 | inhibitory response for nitric oxide in words [2]: performed more poorly than did lilial
C=C(C)[C@H]1CC=C(C)CC1 [Limonene] | >2.82 | >10.0 | – | –
Cc1occc(=O)c1O [Maltol] | 2.82 | 10.0 | – | antioxidant properties in words [1]: performed marginally well
CC1CCC(C(C)C)C(O)C1 (stereo not drawn) [Menthol] | >2.82 | >10.0 | – | –
Oc1cccc(O)c1 [Resorcinol] | 0.74 | >10.0 | – | antioxidant properties in words [1]: good responses
Cc1c(C)c2c(c(C)c1O)CCC(C)(C(=O)O)O2 (stereo not drawn) [Trolox, reference compound] | – | – | 0.046 | –
O=c1[nH]c(=O)c2[nH]c(=O)[nH]c2[nH]1 [Uric Acid, reference compound] | – | – | 0.84 | –
COc1cccc(CO)c1 [m-Anisyl alcohol] | >2.82 | >10.0 | – | –

Continued, in another order:

DPPH EC50 [1] [g/g DPPH] | NORA EC50 ([2]; Table 5) [µg/mL] | NORA EC50 [2, 3] [µg/mL] | Structure (SMILES) | further results
0.15 | >10.0 | – | Cc1cc(C(C)(C)C)c(O)c(C(C)(C)C)c1 [BHT, butylated hydroxytoluene] | –
>2.82 | 11.8 | – | OCC=Cc1ccccc1 [Cinnamyl alcohol] | –
>2.82 | >10.0 | – | O=c1ccc2ccccc2o1 [Coumarin] | –
>2.82 | >10.0 | – | CCOC(=O)c1ccc(O)cc1 [Ethyl paraben] | –
0.19 | 0.3 | – | COc1cc(/C=C/C(=O)O)ccc1O [Ferulic acid] | antioxidant properties in words [1]: excellent antioxidant properties
– | – | 23.70 | CC(C=O)Cc1ccc(C(C)(C)C)cc1 (stereo not drawn) [Lilial (G), Lilial] | inhibitory response for nitric oxide in words [2]: better than expected inhibitory response
– | – | 274.16 | Cc1ccc(C(C)C)cc1 [Paracymene] | –
– | – | 10.14 | CC(=O)CCc1ccc(O)cc1 [Raspberry Ketone] | antioxidant capacity in words [1]: greatest antioxidant capacity
0.65 | >10.0 | – | Cc1ccc(C(C)C)c(O)c1 [Thymol] | antioxidant properties in words [1]: good responses
– | – | 8.95 | COc1cc(C=O)ccc1O [Vanillin] | DPPH *AO Power [1, 4]: 0.0112 units/gram; antioxidant capacity in words [1]: greatest antioxidant capacity; NORA AO Power [2, 4]: 93 units/gram
0.16 | 4.1 | – | COc1cc(CO)ccc1O [Vanillyl alcohol] | antioxidant properties in words [1]: excellent antioxidant properties
